# Data reported in ChEMBL document CHEMBL1821597, “Copper-mediated nuclease activity of jadomycin B” (Bioorg Med Chem, 2011).
# Active and inactive are the calls of the source. The rule behind the calls is not given here.
# Columns and labels:
# T47D = assay: Cytotoxicity against human T47D cells; format: functional, cell-based
# Nucleic Acid [1] = assay: Binding affinity at calf thymus DNA at 10 uM by UV-Vis spectrophotometer; format: nucleic-acid assay; settings: Bos taurus
# Nucleic Acid [2] = assay: Induction of double strand cleavage in supercoiled pDesR3 DNA at 10 uM after 2 to 12 hrs by agarose gel electrophoresis in presence of equimolar Cu(OAc)2; format: nucleic-acid assay
# Nucleic Acid [3] = assay: Induction of single strand cleavage in supercoiled pDesR3 DNA at 10 uM after 3 hrs by agarose gel electrophoresis in presence of equimolar Cu(OAc)2 and t-BuOH; format: nucleic-acid assay
# Nucleic Acid [4] = assay: Induction of single strand cleavage in supercoiled pDesR3 DNA at 10 uM after 3 hrs by agarose gel electrophoresis in presence of equimolar Cu(OAc)2 and EDTA; format: nucleic-acid assay
# Nucleic Acid [5] = assay: Induction of single strand cleavage in supercoiled pDesR3 DNA at 10 uM after 3 hrs by agarose gel electrophoresis in presence of equimolar Cu(OAc)2 and DMSO; format: nucleic-acid assay
# Nucleic Acid [6] = assay: Induction of supercoiled pDesR3 DNA cleavage assessed as half life of DNA cleavage after 2 to 12 hrs by agarose gel electrophoresis; format: nucleic-acid assay
# Nucleic Acid [7] = assay: Induction of single strand cleavage in laser-enhanced supercoiled pDesR3 DNA assessed as reduction in time required for single-strand break at 10 uM after 5 mins by agarose gel electrophoresis relative to control in presence of equimolar Cu(OAc)2; format: nucleic-acid assay; parameters: scale not given: the % may be the effect or the level left
# Nucleic Acid [8] = assay: Induction of single strand cleavage in supercoiled pDesR3 DNA at 10 uM after 3 hrs by agarose gel electrophoresis in presence of equimolar Cu(OAc)2 and NaN3; format: nucleic-acid assay
# Nucleic Acid [9] = assay: Induction of supercoiled pDesR3 DNA cleavage at 10 uM after 2 to 12 hrs by agarose gel electrophoresis; format: nucleic-acid assay
# MDA-MB-435 = assay: Cytotoxicity against human MDA-MB-435 cells; format: functional, cell-based
# Nucleic Acid [10] = assay: Induction of single strand cleavage in supercoiled pDesR3 DNA at 10 uM after 2 to 12 hrs by agarose gel electrophoresis in presence of equimolar Cu(OAc)2; format: nucleic-acid assay
# Nucleic Acid [11] = assay: Induction of single strand cleavage in supercoiled pDesR3 DNA at 10 uM after 3 hrs by agarose gel electrophoresis in presence of equimolar Cu(OAc)2 and catalase; format: nucleic-acid assay
# Nucleic Acid [12] = assay: Induction of supercoiled pDesR3 DNA cleavage after 2 to 12 hrs by agarose gel electrophoresis; format: nucleic-acid assay
# Nucleic Acid [13] = assay: Induction of single strand cleavage in supercoiled pDesR3 DNA at 10 uM after 3 hrs by agarose gel electrophoresis in presence of equimolar Cu(OAc)2 and SOD; format: nucleic-acid assay
smiles,measurement,setting,value
CC[C@H](C)[C@H]1C(=O)O[C@H]2c3cc(C)cc(O)c3C3=C(C(=O)c4c(O[C@H]5C[C@@H](O)[C@@H](O)[C@H](C)O5)cccc4C3=O)N12 [JADOMYCIN B],EC50,T47D,9.92 µM
same,Activity,Nucleic Acid [1],inactive
same,Activity,Nucleic Acid [2],inactive
same,Activity,Nucleic Acid [3],inactive
same,Activity,Nucleic Acid [4],inactive
same,Activity,Nucleic Acid [5],inactive
same,T1/2,Nucleic Acid [6],45 min
same,Activity,Nucleic Acid [7],98%
same,Activity,Nucleic Acid [8],inactive
same,Activity,Nucleic Acid [9],inactive
same,EC50,MDA-MB-435,6.89 µM
same,Activity,Nucleic Acid [10],Active
same,Activity,Nucleic Acid [11],inactive
same,EC50,Nucleic Acid [12],1700 nM
same,Activity,Nucleic Acid [13],inactive
